# Measurements from patent publication US20150057246A1, “SILYL-CONTAINING HETEROCYCLIC COMPOUNDS AND METHODS OF USE THEREOF FOR THE TREATMENT OF VIRAL DISEASES” (priority 2012, published 2015).
# Where two headings read alike, the source gives them in different places.
# Tests used:
# HCV 1a replicon = assay: Cell-based HCV replicon assay (TaqMan), genotype 1a replicon; conditions: HCV genotype 1a replicon cells, replicon RNA by real time PCR, day 3, EC90 = concentration for ΔCT=3.2 over baseline
# Method: (§1) Measurement of inhibition by compounds of the present invention was performed using the HCV replicon system. Several different replicons encoding different HCV genotypes or mutations were used. In addition, potency measurements were made using different formats of the replicon assay, including different ways of measurements and different plating formats. See Jan M. Vrolijk et al., A replicons-based bioassay for the measurement of interferons in patients with chronic hepatitis C, 110 J. VIROLOGICAL METHODS 201 (2003); Steven S. Carroll et al., Inhibition of Hepatitis C Virus RNA Replication by 2′-Modified Nucleoside Analogs, 278(14) J. BIOLOGICAL CHEMISTRY 11979 (2003). However, the underlying principles are common to all of these determinations, and are outlined below.
# (§2) TaqMan®-Based Assay Protocol:
# (§3) Compounds of the present invention were assayed for cell-based anti-HCV activity using the following protocol. Replicon cells were seeded at 5000 cells/well in 96-well collagen I-coated Nunc plates in the presence of the test compound. Various concentrations of test compound, typically in 10 serial 2-fold dilutions, were added to the assay mixture, with the starting concentration ranging from 250 μM to 1 μM. The final concentration of DMSO was 0.5%, fetal bovine serum was 5%, in the assay media. Cells were harvested on day 3 by the addition of 1× cell lysis buffer (Ambion cat #8721). The replicon RNA level was measured using real time PCR (TaqMan® assay). The amplicon was located in 5B. The PCR primers were: 5B.2F, ATGGACAGGCGCCCTGA (SEQ. ID NO. 1); 5B.2R, […] (SEQ. ID NO. 2); the probe sequence was FAM-labeled CACGCCATGCGCTGCGG (SEQ. ID NO. 3). GAPDH RNA was used as endogenous control and was amplified in the same reaction as NS5B (multiplex PCR) using primers and VIC-labeled probe recommended by the manufacturer (PE Applied Biosystem). The real-time […] reactions were run on ABI PRISM 7900HT Sequence Detection System using the following program: 48° C. for 30 minutes, 95° C. for 10 minutes, 40 cycles of 95° C. for 15 sec, 60° C. for 1 minute. The ΔCT values (CT5B-CTGAPDH) were plotted against the concentration of test compound and fitted to the sigmoid dose-response model using XLfit4 (MDL). EC50 was defined as the concentration of inhibitor necessary to achieve ΔCT=1 over the projected baseline; EC90 the concentration necessary to achieve ΔCT=3.2 over the baseline. Alternatively, to quantitate the absolute amount of replicon RNA, a standard curve was established by including serially diluted T7 transcripts of replicon RNA in the Taqman assay. All TaqMan® reagents were from PE Applied Biosystems. Such an assay procedure was described in detail in e.g. Malcolm et al., Antimicrobial Agents and Chemotherapy 50: 1013-1020 (2006).
# (§4) HCV replicon EC50 assay data for various replicons and mutants was calculated for selected compounds of the present invention using this method and is provided in the tables above herein.
# HCV 2b replicon = assay: Cell-based HCV replicon assay (TaqMan), genotype 2b replicon; conditions: Hepatitis C virus, 72 h, read-out: 2b EC90, HCV genotype 2b replicon cells, replicon RNA by real time PCR, day 3; EC90 = concentration for ΔCT=3.2 over baseline
# Method: as §1, §2, §3, §4
# HCV 1a Y93H replicon = assay: Cell-based HCV replicon assay (TaqMan), 1a Y93H mutant replicon; conditions: EC90 = concentration for ΔCT=3.2 over baseline
# Method: as §1, §2, §3, §4
# [1] = Hepatitis C virus, 72 h, read-out: 1a Y93H EC90, HCV 1a Y93H mutant replicon cells, replicon RNA by real time PCR, day 3
Structure (SMILES),"EC90 (HCV 1a replicon; Hepatitis C virus, 72 h)",EC90 (HCV 2b replicon),EC90 (HCV 1a Y93H replicon; [1]),EC90 (HCV 1a replicon),"EC90 (HCV 1a Y93H replicon; read-out: 1a Y93H EC90, HCV 1a Y93H mutant replicon cells, replicon RNA by real time PCR, day 3)"
COC(=O)N[C@H](C(=O)N1CCC[C@H]1c1ncc(-c2ccc(-c3ccc4c(ccc5nc([C@@H]6C[Si](C)(C)CN6C(=O)[C@@H](NC(=O)OC)C6CCCC6)[nH]c54)c3)cc2)[nH]1)C(C)C [Compound 58],0.45 nM,265 nM,580 nM,–,–
CC[C@H](C)[C@H](NC(=O)OC)C(=O)N1C[Si](C)(C)C[C@H]1c1nc2ccc3cc(-c4ccc(-c5cnc([C@@H]6CCCN6C(=O)[C@@H](NC(=O)OC)C(C)C)[nH]5)cc4)ccc3c2[nH]1 [Compound 59],0.61 nM,245 nM,> 1000 nM,–,–
COC(=O)N[C@H](C(=O)N1CCC[C@H]1c1ncc(-c2ccc(-c3ccc4c(ccc5nc([C@@H]6C[Si](C)(C)CN6C(=O)[C@@H](NC(=O)OC)[C@@H](C)OC)[nH]c54)c3)cc2)[nH]1)C(C)C [Compound 60],0.21 nM,52.8 nM,> 1000 nM,–,–
COC(=O)N[C@@H](Cc1cccc(O)c1)C(=O)N1C[Si](C)(C)C[C@H]1c1nc2ccc3cc(-c4ccc(-c5cnc([C@@H]6CCCN6C(=O)[C@@H](NC(=O)OC)C(C)C)[nH]5)cc4)ccc3c2[nH]1 [Compound 61],0.33 nM,37 nM,> 1000 nM,–,–
COC(=O)N[C@@H](Cn1ncnn1)C(=O)N1C[Si](C)(C)C[C@H]1c1nc2ccc3cc(-c4ccc(-c5cnc([C@@H]6CCCN6C(=O)[C@@H](NC(=O)OC)C(C)C)[nH]5)cc4)ccc3c2[nH]1 [Compound 62],0.22 nM,91 nM,> 1000 nM,–,–
COC(=O)N[C@H](C(=O)N1CCC[C@H]1c1ncc(-c2ccc(-c3ccc4c(ccc5nc([C@@H]6C[Si](C)(C)CN6C(=O)[C@H]6COCCN6C(=O)OC)[nH]c54)c3)cc2)[nH]1)C(C)C [Compound 63],5.1 nM,> 1000 nM,> 1000 nM,–,–
COC(=O)N[C@H](C(=O)N1CCC[C@H]1c1ncc(-c2ccc(-c3ccc4c(ccc5nc([C@@H]6C[Si](C)(C)CN6C(=O)[C@@H]6COCCN6C(=O)OC)[nH]c54)c3)cc2)[nH]1)C(C)C [Compound 64],1.6 nM,273 nM,> 1000 nM,–,–
COC(=O)N[C@@H](Cc1cn(C)cn1)C(=O)N1C[Si](C)(C)C[C@H]1c1nc2ccc3cc(-c4ccc(-c5cnc([C@@H]6CCCN6C(=O)[C@@H](NC(=O)OC)C(C)C)[nH]5)cc4)ccc3c2[nH]1 [Compound 65],0.36 nM,308 nM,564 nM,–,–
COC(=O)N[C@@H](Cn1cccn1)C(=O)N1C[Si](C)(C)C[C@H]1c1nc2ccc3cc(-c4ccc(-c5cnc([C@@H]6CCCN6C(=O)[C@@H](NC(=O)OC)C(C)C)[nH]5)cc4)ccc3c2[nH]1 [Compound 66],0.39 nM,321 nM,> 1000 nM,–,–
CC[C@H](C)[C@H](NC(=O)OC)C(=O)N1CCC[C@H]1c1ncc(-c2ccc(-c3ccc4c(ccc5nc([C@@H]6C[Si](C)(C)CN6C(=O)[C@@H](NC(=O)OC)C(C)C)[nH]c54)c3)cc2)[nH]1 [Compound 81],0.3 nM,561 nM,994 nM,–,–
COC(=O)N[C@H](C(=O)N1C[Si](C)(C)C[C@H]1c1nc2ccc3cc(-c4ccc(-c5cnc([C@@H]6CCCN6C(=O)[C@@H](NC(=O)OC)C6CC6)[nH]5)cc4)ccc3c2[nH]1)C(C)C [Compound 82],0.24 nM,154 nM,659 nM,–,–
COC(=O)N[C@@H](CC1CC1)C(=O)N1CCC[C@H]1c1ncc(-c2ccc(-c3ccc4c(ccc5nc([C@@H]6C[Si](C)(C)CN6C(=O)[C@@H](NC(=O)OC)C(C)C)[nH]c54)c3)cc2)[nH]1 [Compound 83],0.46 nM,406 nM,528 nM,–,–
COC(=O)N[C@@H](CC(C)(C)C)C(=O)N1CCC[C@H]1c1ncc(-c2ccc(-c3ccc4c(ccc5nc([C@@H]6C[Si](C)(C)CN6C(=O)[C@@H](NC(=O)OC)C(C)C)[nH]c54)c3)cc2)[nH]1 [Compound 84],0.92 nM,413 nM,> 1000 nM,–,–
COC(=O)N[C@H](C(=O)N1C[Si](C)(C)C[C@H]1c1nc2ccc3cc(-c4ccc(-c5cnc([C@@H]6CCCN6C(=O)[C@@H](NC(=O)OC)C6CCCC6)[nH]5)cc4)ccc3c2[nH]1)C(C)C [Compound 85],0.52 nM,330 nM,> 1000 nM,–,–
COC(=O)N[C@H](C(=O)N1C[Si](C)(C)C[C@H]1c1nc2ccc3cc(-c4ccc(-c5cnc([C@@H]6CCCN6C(=O)[C@@H](NC(=O)OC)C(C)(C)OC)[nH]5)cc4)ccc3c2[nH]1)C(C)C [Compound 86],0.77 nM,389 nM,> 1000 nM,–,–
COC(=O)N[C@H](C(=O)N1C[Si](C)(C)C[C@H]1c1nc2ccc3cc(-c4ccc(-c5cnc([C@@H]6CCCN6C(=O)[C@@H](NC(=O)OC)[C@@H](C)O)[nH]5)cc4)ccc3c2[nH]1)C(C)C [Compound 87],0.67 nM,81.7 nM,> 1000 nM,–,–
CCN(CC)[C@@H](C(=O)N1CCC[C@H]1c1ncc(-c2ccc(-c3ccc4c(ccc5nc([C@@H]6C[Si](C)(C)CN6C(=O)[C@@H](NC(=O)OC)C(C)C)[nH]c54)c3)cc2)[nH]1)c1ccccc1 [Compound 88],0.26 nM,10.9 nM,500 nM,–,–
COC(=O)N[C@H](C(=O)N1C[Si](C)(C)C[C@H]1c1nc2ccc3cc(-c4ccc(-c5cnc([C@@H]6CCCN6C(=O)[C@@H](NC(=O)OC)[C@@H](C)OC)[nH]5)cc4)ccc3c2[nH]1)C(C)C [Compound 89],0.28 nM,> 1000 nM,> 1000 nM,–,–
COC(=O)N[C@@H](CO)C(=O)N1CCC[C@H]1c1ncc(-c2ccc(-c3ccc4c(ccc5nc([C@@H]6C[Si](C)(C)CN6C(=O)[C@@H](NC(=O)OC)C(C)C)[nH]c54)c3)cc2)[nH]1 [Compound 90],0.56 nM,> 1000 nM,> 1000 nM,–,–
COC(=O)N[C@H](C(=O)N1CCC[C@H]1c1nc(Cl)c(-c2ccc(-c3ccc4c(ccc5nc([C@@H]6C[Si](C)(C)CN6C(=O)[C@@H](NC(=O)OC)C(C)C)[nH]c54)c3)cc2)[nH]1)C(C)C [Compound 94],0.19 nM,184 nM,935 nM,–,–
COC(=O)N[C@H](C(=O)N1C[Si](C)(C)C[C@H]1c1nc2ccc3cc(-c4ccc(-c5cnc([C@@H]6C[C@H]7C[C@H]7N6C(=O)[C@@H](NC(=O)OC)C6CCOCC6)[nH]5)cc4)ccc3c2[nH]1)C1CCOCC1 [Compound 99],0.14 nM,3.5 nM,42 nM,–,–
CC(C)(C)OC(=O)N1C[Si](C)(C)C[C@H]1c1nc2ccc3cc(-c4ccc(-c5[nH]c([C@@H]6C[C@H]7C[C@H]7N6C(=O)OC(C)(C)C)nc5Cl)cc4)ccc3c2[nH]1 [Compound 100],> 1000 nM,> 1000 nM,> 1000 nM,–,–
COC(=O)N[C@H](C(=O)N1C[Si](C)(C)C[C@H]1c1nc2ccc3cc(-c4ccc(-c5[nH]c([C@@H]6C[C@H]7C[C@H]7N6C(=O)[C@@H](NC(=O)OC)C6CCOCC6)nc5Cl)cc4)ccc3c2[nH]1)C1CCOCC1 [Compound 103],0.082 nM,2.85 nM,16.1 nM,–,–
CC(C)(C)OC(=O)N1C[Si](C)(C)C[C@H]1c1nc2ccc3cc(-c4ccc(-c5cnc([C@@H]6C[C@H]7C[C@H]7N6C(=O)OC(C)(C)C)[nH]5)cc4)ccc3c2[nH]1 [Compound 104],–,> 1000 nM,–,> 1000 nM,> 1000 nM
